Data: patent publication US20060281771A1, “SYNERGISTIC MODULATION OF FLT3 KINASE USING AMINOQUINOLINE AND AMINOQUINAZOLINE KINASE MODULATORS” (priority 2005, published 2006)

Legend:
MV4-11 cells = assay: Inhibition of MV4-11 cell proliferation (CellTiterGlo, 72 h); assay type: cell-based; conditions: Homo sapiens; 72 h growth inhibition
Procedure: To assess the cellular potency of the FLT3 inhibitors of Formula I′, FLT3 specific growth inhibition was measured in the leukemic cell line MV4-11 (ATCC Number: CRL-9591). […] MV4-11 cells cannot grow and survive without active FLT3ITD.
To measure proliferation inhibition by test compounds, the luciferase based CellTiterGlo reagent (Promega), which quantifies total cell number based on total cellular ATP concentration, was used. Cells are plated at 10,000 cells per well in 100 ul of in RPMI media containing penn/strep, 10% FBS and 1 ng/ml GM-CSF or 1 ng/ml IL-3 for MV4-11 and Baf3 cells respectively.
Compound dilutions or 0.1% DMSO (vehicle control) are added to cells and the cells are allowed to grow for 72 hours at standard cell growth conditions (37° C., 5% CO2). For activity measurements in MV4-11 cells grown in 50% plasma, cells were plated at 10,000 cells per well in a 1:1 mixture of growth media and human plasma (final volume of 100 μL). To measure total cell growth an equal volume of CellTiterGlo reagent was added to each well, according to the manufacturer's instructions, and luminescence was quantified. Total cell growth was quantified as the difference in luminescent counts (relative light units, RLU) of cell number at Day 0 compared to total cell number at Day 3 (72 hours of growth and/or compound treatment). One hundred percent inhibition of growth is defined as an RLU equivalent to the Day 0 reading. Zero percent inhibition was defined as the RLU signal for the DMSO vehicle control at Day 3 of growth. All data points are an average of triplicate samples. […] Inhibition and IC50 data analysis was done with GraphPad Prism using a non-linear regression fit with a multiparamater, sigmoidal dose-response (variable slope) equation.
MV4-11 cells express the FLT3 internal tandem duplication mutation, and thus are entirely dependent upon FLT3 activity for growth. […] In contrast, the Baf3 cell proliferation is driven by the cytokine IL-3 and thus are used as a non-specific toxicity control for test compounds.

[1] = molecular target: T1, wild-type FLT3 phosphorylation in Baf3 FLT3 cells (Homo sapiens, UniProt P36888); assay: Cell-based FLT3 receptor ELISA; conditions: FLT ligand-induced FLT3 phosphorylation
T1 construct: host or cells: Baf3 (murine B cell lymphoma line)
T1 sequence (P36888 27-993): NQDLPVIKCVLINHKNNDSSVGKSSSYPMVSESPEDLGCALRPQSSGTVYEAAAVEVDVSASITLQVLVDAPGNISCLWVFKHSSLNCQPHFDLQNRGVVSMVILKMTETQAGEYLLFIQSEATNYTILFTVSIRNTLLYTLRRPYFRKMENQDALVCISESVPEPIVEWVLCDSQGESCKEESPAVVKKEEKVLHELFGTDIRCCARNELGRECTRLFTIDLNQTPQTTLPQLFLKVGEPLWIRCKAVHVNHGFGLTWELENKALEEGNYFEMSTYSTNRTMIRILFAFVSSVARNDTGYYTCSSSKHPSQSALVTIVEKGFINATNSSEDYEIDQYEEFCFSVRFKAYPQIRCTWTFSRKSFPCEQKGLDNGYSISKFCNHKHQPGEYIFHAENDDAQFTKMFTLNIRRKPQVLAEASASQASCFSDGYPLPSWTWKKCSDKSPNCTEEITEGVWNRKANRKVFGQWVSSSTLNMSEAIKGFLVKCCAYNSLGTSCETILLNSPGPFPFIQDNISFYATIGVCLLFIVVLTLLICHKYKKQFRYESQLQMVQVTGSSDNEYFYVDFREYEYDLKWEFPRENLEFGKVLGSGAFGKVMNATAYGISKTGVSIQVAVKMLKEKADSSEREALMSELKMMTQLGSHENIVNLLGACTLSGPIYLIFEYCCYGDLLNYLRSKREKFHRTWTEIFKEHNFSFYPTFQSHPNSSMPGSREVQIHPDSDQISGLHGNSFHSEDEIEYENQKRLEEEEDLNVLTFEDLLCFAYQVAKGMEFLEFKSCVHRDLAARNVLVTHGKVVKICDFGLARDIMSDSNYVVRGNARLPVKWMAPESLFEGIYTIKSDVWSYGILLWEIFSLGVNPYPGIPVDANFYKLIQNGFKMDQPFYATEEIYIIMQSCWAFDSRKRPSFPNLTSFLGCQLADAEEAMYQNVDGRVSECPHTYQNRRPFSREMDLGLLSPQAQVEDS
Procedure: Specific cellular inhibition of FLT ligand-induced wild-type FLT3 phosphorylation was measured in the following manner: Baf3 FLT3 cells overexpressing the FLT3 receptor were obtained from Dr. Michael Heinrich (Oregon Health and Sciences University). The Baf3 FLT3 cell lines were created by stable transfection of parental Baf3 cells (a murine B cell lymphoma line dependent on the cytokine IL-3 for growth) with wild-type FLT3. Cells were selected for their ability to grow in the absence of IL-3 and in the presence of FLT3 ligand.
Baf3 cells were maintained in RPMI 1640 with 10% FBS, penn/strep and 10 ng/ml FLT ligand at 37° C., 5% CO2. To measure direct inhibition of the wild-type FLT3 receptor activity and phosphorylation a sandwich ELISA method was developed similar to those developed for other RTKs (see Sadick, M D, Sliwkowski, M X, Nuijens, A, Bald, L, Chiang, N, Lofgren, J A, Wong W L T. Analysis of Heregulin-Induced ErbB2 Phosphorylation with a High-Throughput Kinase Receptor Activation Enzyme-Linked Immunsorbent Assay, Analytical Biochemistry. 1996; 235:207-214 and Baumann C A, Zeng L, Donatelli R R, Maroney A C. Development of a quantitative, high-throughput cell-based enzyme-linked immunosorbent assay for detection of colony-stimulating factor-1 receptor tyrosine kinase inhibitors. J Biochem Biophys Methods. 2004; 60:69-79.). 200 μL of Baf3FLT3 cells (1×10^6/mL) were plated in 96 well dishes in RPMI 1640 with 0.5% serum and 0.01 ng/mL IL-3 for 16 hours prior to 1 hour compound or DMSO vehicle incubation. Cells were treated with 100 ng/mL Flt ligand (R&D Systems Cat# 308-FK) for 10 min. at 37° C. Cells were pelleted, washed and lysed in 100 ul lysis buffer (50 mM Hepes, 150 mM NaCl, 10% Glycerol, 1% Triton-X-100, 10 mM NaF, 1 mM EDTA, 1.5 mM MgCl2, 10 mM NaPyrophosphate) supplemented with phosphatase (Sigma Cat# P2850) and protease inhibitors (Sigma Cat #P8340). Lysates were cleared by centrifugation at 1000×g for 5 minutes at 4° C. Cell lysates were transferred to white wall 96 well microtiter (Costar #9018) plates coated with 50 ng/well anti-FLT3 antibody (Santa Cruz Cat# sc-480) and blocked with SeaBlock reagent (Pierce Cat#37527). Lysates were incubated at 4° C. for 2 hours. Plates were washed 3× with 200 ul/well PBS/0.1% Triton-X-100. Plates were then incubated with 1:8000 dilution of HRP-conjugated anti-phosphotyrosine antibody (Clone 4G10, Upstate Biotechnology Cat#16-105) for 1 hour at room temperature. Plates were washed 3× with 200 ul/well PBS/0.1% Triton-X-100. Signal detection with Super Signal Pico reagent (Pierce Cat#37070) was done according to manufacturer's instruction with a Berthold microplate luminometer. All data points are an average of triplicate samples. […] Inhibition and IC50 data analysis was done with GraphPad Prism using a non-linear regression fit with a multiparamater, sigmoidal dose-response (variable slope) equation.

| Compound | IC50 (MV4-11 cells) [nM] | IC50 [1] [nM] |
| --- | --- | --- |
| COc1cc2ncnc(N3CCC(NC(=O)Nc4ccc(N(C)C)cc4)CC3)c2cc1OC [Compound 62, 1-[1-(6,7-Dimethoxy-quinazolin-4-yl)-piperidin-4-yl]-3-(4-dimethylamino-phenyl)-urea] | 941 | 16 |
| COc1cc2ncnc(N3CCC(NC(=O)Nc4ccc(C5CCCCC5)cc4)C3)c2cc1OC (centres unmarked) [Compound 50, 1-(4-Cyclohexyl-phenyl)-3-[1-(6,7-dimethoxy-quinazolin-4-yl)-pyrrolidin-3-yl]-urea] | 1700 |  |
| CC(C)c1ccc(NC(=O)NC2CCN(c3ncnc4cc(OCCCN5CCN(C)CC5)ccc34)CC2)cc1 [Compound 75, 1-(4-Isopropyl-phenyl)-3-(1-{7-[3-(4-methyl-piperazin-1-yl)-propoxy]-quinazolin-4-yl}-piperidin-4-yl)-urea] | 1 | 1 |
| COc1cc2ncnc(N3CCC(OC(=O)Nc4ccc(OC5CCCC5)cc4)CC3)c2cc1OC [Compound 55, (4-Cyclopentyloxy-phenyl)-carbamic acid 1-(6,7-dimethoxy-quinazolin-4-yl)-piperidin-4-yl ester] | 560 | 420 |
| COc1cc2ncnc(N3CCC(COC(=O)Nc4ccc(OC5CCCC5)cc4)CC3)c2cc1OC [Compound 56, (4-Cyclopentyloxy-phenyl)-carbamic acid 1-(6,7-dimethoxy-quinazolin-4-yl)-piperidin-4-ylmethyl ester] | 740 |  |
| COc1ccc2ncnc(N3CCC(NC(=O)Nc4ccc(C(C)C)cc4)CC3)c2c1 [Compound 64, 1-(4-Isopropyl-phenyl)-3-[1-(6-methoxy-quinazolin-4-yl)-piperidin-4-yl]-urea] | 16 | 11 |
| COc1cc2ncnc(N3CCC(NC(=O)Nc4ccc(N5CCCC5)nc4)CC3)c2cc1OC [Compound 68, 1-[1-(6,7-Dimethoxy-quinazolin-4-yl)-piperidin-4-yl]-3-(6-pyrrolidin-1-yl-pyridin-3-yl)-urea] | 134 | 16 |
| COc1cc2ncnc(N3CCC(NC(=O)Nc4ccc(C(C)C)cc4)CC3)c2cc1OC [Compound 66, 1-[1-(6,7-Dimethoxy-quinazolin-4-yl)-piperidin-4-yl]-3-(4-isopropyl-phenyl)-urea] | 1 | 1 |
| COc1cc2ncnc(N3CCC(OC(=O)Nc4ccc(OC5CCCC5)cc4)C3)c2cc1OC (centres unmarked) [Compound 54, (4-Cyclopentyloxy-phenyl)-carbamic acid 1-(6,7-dimethoxy-quinazolin-4-yl)-pyrrolidin-3-yl ester] | 1500 |  |
| COc1cc2ncnc(N3CCC(NC(=O)Nc4ccc(OC5CCCC5)cc4)C3)c2cc1OC (centres unmarked) [Compound 53, 1-(4-Cyclopentyloxy-phenyl)-3-[1-(6,7-dimethoxy-quinazolin-4-yl)-pyrrolidin-3-yl]-urea] | 1500 |  |
| CC(C)Oc1ccc(NC(=O)OC2CCN(c3ccnc4ccccc34)CC2)cc1 [Compound 41] | > 10000 |  |
| COc1cc2ncnc(N3CCC(NC(=O)Nc4ccc(N5CCCCC5)cc4)C3)c2cc1OC (centres unmarked) [Compound 47, 1-[1-(6,7-Dimethoxy-quinazolin-4-yl)-pyrrolidin-3-yl]-3-(4-piperidin-1-yl-phenyl)-urea] | 3900 |  |
| COc1cc2ncnc(N3CCC(NC(=O)Nc4ccc(Cl)cc4)C3)c2cc1OC (centres unmarked) [Compound 48, 1-(4-Chloro-phenyl)-3-[1-(6,7-dimethoxy-quinazolin-4-yl)-pyrrolidin-3-yl]-urea] | 2500 |  |
| COc1cc2ncnc(N3CCC(NC(=O)Nc4ccc(N5CCOCC5)cc4)C3)c2cc1OC (centres unmarked) [Compound 43, 1-[1-(6,7-Dimethoxy-quinazolin-4-yl)-pyrrolidin-3-yl]-3-(4-morpholin-4-yl-phenyl)-urea] | > 5000 |  |
| COc1cc2ncnc(N3CCC(NC(=O)Nc4ccc(N5CCCC5)nc4)C3)c2cc1OC (centres unmarked) [Compound 46, 1-[1-(6,7-Dimethoxy-quinazolin-4-yl)-pyrrolidin-3-yl]-3-(6-pyrrolidin-1-yl-pyridin-3-yl)-urea] | 3500 |  |
| COc1cc2ncnc(N3CCC(NC(=O)Nc4ccc(OC5CCC5)nc4)C3)c2cc1OC (centres unmarked) [Compound 44, 1-(6-Cyclobutoxy-pyridin-3-yl)-3-[1-(6,7-dimethoxy-quinazolin-4-yl)-pyrrolidin-3-yl]-urea] | 1000 |  |
| COc1cc2ncnc(N3CCC(NC(=O)Nc4ccc(Cl)cc4)CC3)c2cc1OC [Compound 61, 1-(4-Chloro-phenyl)-3-[1-(6,7-dimethoxy-quinazolin-4-yl)-piperidin-4-yl]-urea] | 9400 |  |
| COc1cc2ncnc(N3CCC(NC(=O)Nc4ccc(OC5CCCC5)nc4)C3)c2cc1OC (centres unmarked) [Compound 45, 1-(6-Cyclopentyloxy-pyridin-3-yl)-3-[1-(6,7-dimethoxy-quinazolin-4-yl)-pyrrolidin-3-yl]-urea] | 1100 |  |
| COc1cc2ncc(C#N)c(N3CCC(OC(=O)Nc4ccc(C(C)C)cc4)CC3)c2cc1OC [Compound 42, (4-Isopropyl-phenyl)-carbamic acid 1-(3-cyano-6,7-dimethoxy-quinolin-4-yl)-piperidin-4-yl ester] | 2100 |  |
| COc1cc2ncnc(N3CCC(NC(=O)Nc4ccc(Oc5ccccc5)cc4)C3)c2cc1OC (centres unmarked) [Compound 51, 1-[1-(6,7-Dimethoxy-quinazolin-4-yl)-pyrrolidin-3-yl]-3-(4-phenoxy-phenyl)-urea] | 1200 |  |
